Assay [1] has as its target T1, hSGLT3 (Homo sapiens, UniProt Q9NY91).
T1 construct: The complete hSGLT3 clone was created by ligation of this PCR product to the 3′-end of hSGLT3 at the HindIII site; expressed in transfected cells; host or cells: Xenopus laevis oocytes injected with hSGLT3 cRNA
T1 sequence (Q9NY91 1-659): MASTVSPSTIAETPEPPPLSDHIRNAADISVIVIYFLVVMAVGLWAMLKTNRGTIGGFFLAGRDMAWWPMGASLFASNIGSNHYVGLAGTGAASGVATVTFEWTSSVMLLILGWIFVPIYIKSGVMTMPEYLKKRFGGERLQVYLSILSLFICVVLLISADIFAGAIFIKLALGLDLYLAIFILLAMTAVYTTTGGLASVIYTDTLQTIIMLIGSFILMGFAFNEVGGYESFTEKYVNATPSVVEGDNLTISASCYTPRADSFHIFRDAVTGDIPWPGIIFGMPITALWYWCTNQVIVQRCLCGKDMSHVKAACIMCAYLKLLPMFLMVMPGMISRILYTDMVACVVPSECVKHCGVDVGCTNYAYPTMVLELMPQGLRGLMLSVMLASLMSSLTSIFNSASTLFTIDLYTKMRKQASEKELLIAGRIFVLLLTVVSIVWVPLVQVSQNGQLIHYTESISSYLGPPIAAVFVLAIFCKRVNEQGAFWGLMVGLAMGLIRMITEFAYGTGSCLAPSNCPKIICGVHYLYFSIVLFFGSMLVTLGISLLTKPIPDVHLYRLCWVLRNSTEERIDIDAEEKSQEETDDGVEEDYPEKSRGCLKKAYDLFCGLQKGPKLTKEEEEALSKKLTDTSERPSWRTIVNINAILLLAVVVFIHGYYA
Kind of assay: two-electrode voltage-clamp, membrane potential of hSGLT3-expressing Xenopus oocytes. The assay is classed as cell-based. To be noted: for effect on the membrane potential: concentrations as high as 100 mM; for membrane depolarization: 5 mM sugar, Na+ buffer pH 7.5, single oocyte; for effect on the membrane potential (qualitative): exposure of hSGLT3 oocytes to sugar; for inhibition of glucose-induced membrane depolarization: 250 μM phlorizin. The method, then:
(§1) Expression of hSGLT3 in oocytes. Stage VI oocytes from Xenopus laevis (Nasco, Fort Atkinson, Wis.) were defolliculated and injected with hSGLT3 cRNA and maintained at 18° C. in modified Barth's medium containing gentamycin (5 mg/ml) and penicillin (100 units/ml)/streptomycin (100 μg/ml). Each oocyte was injected with 20 ng of cRNA. Experiments were performed at 22±1° C., 3-9 days after the injection.
(§2) Two electrode-voltage clamp. Oocytes expressing SGLTs and control oocytes were placed in the chamber, impaled with the two electrodes and continuously superfused with the required medium (Loo et al. (1998) Proc. Natl. Acad. Sci. USA 95:7789-7794). Membrane potential changes and ionic currents were measured when adding different sugar concentrations. Sugar-specific changes in current were the difference between the values measured with sugar and the preceding value in buffer alone. Na^+ buffer contained 100 mM NaCl, 2 mM KCl, 1 mM CaCl2, 1 mM MgCl2 and 10 mM HEPES/tris (pH 7.5). In Na^+-free buffer, choline Cl replaced NaCl, and for the experiments at pH 5.0 HEPES/tris was replaced with MES/tris. In some experiments at low pH we simultaneously recorded the intracellular pH of the oocyte using the fluorescent dye BCECF-AM (15, 16). The apparent affinity (K0.5) and apparent maximal current (Imax) were calculated with the equation [1]=Imax. [S]/(K0.5+[S]), using the non-linear fitting method in SigmaPlot (SPSS, Chicago, Ill.) where [S] is the sugar concentration. The results are illustrated by experiments on single oocytes, but each was representative of at least 3-8 different oocytes.
(§3) Using the techniques described above, a two-electrode voltage-clamp was used to monitor hSGLT3's electrical properties in Xenopus oocytes. The oocytes were exposed to candidate compounds, and the depolarization of membrane potential was recorded.

Assay [2] addresses T1, hSGLT3. Kind of assay: sugar-induced currents in hSGLT3-expressing oocytes under voltage clamp. Format: cell-based. The procedure:
as §1, §2

Assay [3] deals with T1, hSGLT3. Kind of assay: simultaneous [14C]-glucose uptake and sugar-induced current in hSGLT3-expressing oocytes. The assay is classed as cell-based. The method, then:
as §1
(§4) Uptake experiments. Control oocytes or oocytes expressing a SGLT were superfused with a buffer solution containing either 100 mM NaCl or choline chloride at pH 7.5 or 5 while the plasma membrane potential was clamped at voltages between −50 and −110 mV. […] After the sugar was removed from the bathing solution the current returned to the baseline. The oocyte was washed, solubilized and glucose uptake determined using a scintillation spectrometer. Sugar-induced current was obtained by integrating the difference between baseline and the glucose-dependent current. The current, measured simultaneously with sugar uptake, was converted to its molar equivalent of univalent charge. [^14C]-glucose uptake in non-injected oocytes from the same batch of oocytes was used as a control.

Assay [4] has as its target T2, pSGLT3 (Sus scrofa, UniProt P31636).
T2 construct: expressed in transfected cells; host or cells: Xenopus laevis oocytes expressing pig SGLT3
T2 sequence (P31636 1-660): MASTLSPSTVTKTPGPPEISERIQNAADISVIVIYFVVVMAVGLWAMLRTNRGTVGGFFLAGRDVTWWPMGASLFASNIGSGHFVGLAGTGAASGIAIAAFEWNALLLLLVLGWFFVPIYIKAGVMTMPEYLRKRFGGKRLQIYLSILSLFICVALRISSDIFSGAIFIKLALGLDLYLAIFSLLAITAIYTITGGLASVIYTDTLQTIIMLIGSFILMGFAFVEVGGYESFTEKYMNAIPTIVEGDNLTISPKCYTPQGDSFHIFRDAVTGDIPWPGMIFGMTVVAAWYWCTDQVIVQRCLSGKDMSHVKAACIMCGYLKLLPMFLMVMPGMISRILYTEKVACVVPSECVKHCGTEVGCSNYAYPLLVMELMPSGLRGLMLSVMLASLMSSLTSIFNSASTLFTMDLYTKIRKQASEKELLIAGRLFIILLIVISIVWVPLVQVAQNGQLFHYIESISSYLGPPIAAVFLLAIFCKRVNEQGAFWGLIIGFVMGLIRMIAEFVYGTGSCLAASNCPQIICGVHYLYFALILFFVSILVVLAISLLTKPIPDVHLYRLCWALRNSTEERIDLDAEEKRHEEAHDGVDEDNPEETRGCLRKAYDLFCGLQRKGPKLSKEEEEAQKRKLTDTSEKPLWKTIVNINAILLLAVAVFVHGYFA
Kind of assay: ratio of positive ion uptake and sugar uptake in pSGLT3-expressing oocytes. Format: cell-based, pig. The procedure: as §4

The target of assay [5] is T3, SGLT1 (Homo sapiens, UniProt P13866).
T3 sequence (P13866 1-664): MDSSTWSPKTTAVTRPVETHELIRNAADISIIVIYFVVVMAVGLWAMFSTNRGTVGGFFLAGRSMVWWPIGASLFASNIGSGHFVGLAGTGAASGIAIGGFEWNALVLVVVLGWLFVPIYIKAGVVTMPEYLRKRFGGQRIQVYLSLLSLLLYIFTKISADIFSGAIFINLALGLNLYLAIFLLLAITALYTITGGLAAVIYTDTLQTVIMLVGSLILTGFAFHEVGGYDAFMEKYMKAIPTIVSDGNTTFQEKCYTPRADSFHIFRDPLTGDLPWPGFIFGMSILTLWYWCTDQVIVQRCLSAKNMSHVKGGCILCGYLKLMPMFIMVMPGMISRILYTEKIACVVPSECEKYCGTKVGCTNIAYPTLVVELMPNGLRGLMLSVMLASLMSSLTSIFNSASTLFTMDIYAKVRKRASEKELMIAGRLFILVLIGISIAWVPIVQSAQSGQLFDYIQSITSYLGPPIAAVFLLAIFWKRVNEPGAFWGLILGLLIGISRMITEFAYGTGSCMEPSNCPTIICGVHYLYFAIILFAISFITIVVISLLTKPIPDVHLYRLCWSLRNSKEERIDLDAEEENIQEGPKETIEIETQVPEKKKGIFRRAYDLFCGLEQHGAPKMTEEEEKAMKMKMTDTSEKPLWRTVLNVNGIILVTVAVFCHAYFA
The arrangement: host or cells: Xenopus laevis oocytes expressing hSGLT1. Particulars: cited from earlier work.

The subject of assay [6] is control cells. Kind of assay: response of control cells to amino sugars. The assay is classed as cell-based, Xenopus laevis. To be noted: 30 mM. The procedure:
as §2, with “The results are illustrated by experiments on single oocytes, but each was representative of at least 3-8 different oocytes.” left out
as §3

For assay [7], the target named is T3, SGLT1. Put plainly: response of cells expressing SGLT1 to amino sugars. Particulars: 30 mM. The arrangement: expressed in transfected cells; host or cells: cells expressing SGLT1; Xenopus oocytes are inferred from 'Using the techniques described above'. Format: cell-based. The method, then:
as §2, with “The results are illustrated by experiments on single oocytes, but each was representative of at least 3-8 different oocytes.” left out
as §3

Assay [8] deals with guinea pig ileum. Kind of assay: mechanical activity of guinea pig ileum.
For assay [9] the following is noted: injected into the cerebrospinal fluid; cited from earlier work.
Assay [10] has as its system glucose-responsive neurons in the hypothalamus. Particulars: cited from earlier work.
The subject of assay [11] is neuroendocrine cells. Particulars: Na+-dependent and phlorizin-sensitive manner; cited from earlier work.
Setting [12] is: 2 mM glucose, -70 mV, Na+ buffer pH 5.

Several values for one entry are separate records, joined by “and”; a condition that tells them apart may be missing. Equal values may be shown once. Read-outs that look alike come from different tables or passages of the source.

As to `O=C[C@H](O)C[C@H](O)[C@H](O)CO` [3-deoxy-D-glucose], the “effect on the membrane potential” value in assay [1] is “failed to affect the membrane potential”.

Consider `O=C(CO)[C@@H](O)[C@H](O)[C@H](O)CO` [D-fructose], for which the “effect on the membrane potential” value in assay [1] is “no effect”.

On to `O=C[C@H](O)[C@@H](O)[C@@H](O)[C@H](O)CO` [D-galactose], for which, in assay [1], the membrane depolarization entry is given as “no effect” and the “effect on the membrane potential” value is listed as “no effect”.

As for `O=C[C@H](O)[C@@H](O)[C@H](O)[C@H](O)CO` [D-glucose], in assay [1], the “depolarization of the membrane potential by phlorizin sensitive inward current” value was “up to 50 mV”, the membrane depolarization entry is recorded as “about 4 mV” and the “effect on the membrane potential (qualitative)” value is “reversibly depolarized the membrane potential”. Further, the ΔVmax in assay [1] (6 experiments) worked out at 26±9 mV. For the same compound, the EC50 in assay [1] (K0.5 (apparent affinity) of depolarization, 6 experiments, pH 7.5) is 60 mM and ~60 mM. The “maximal depolarization (ΔVm)” value in assay [1] (fit of a single oocyte (FIG. 4B)) was found to be 23 mV. In addition, the “activation energy (Ea) of glucose-induced current” value in assay [2] (pH 5, presence and absence of Na+, 10, 22 and 28° C., Arrhenius plots) was about 9 kcal/mol. For the same compound, the “cation uptake in hSGLT3 oocytes” value in assay [3] (2 mM D-glucose, 5 minutes, Na+ pH 5, n=5) is 81 ± 7 pmol. Moreover, the “D-glucose uptake in hSGLT3 oocytes” value in [3] (2 mM D-glucose, 5 minutes, Na+ pH 5, n=5, control oocytes 11±0.6) worked out at 11 ± 0.5 pmol. For the same compound, in assay [3] (setting [12]), the “glucose uptake in hSGLT3 oocytes compared with control oocytes” value is reported as “identical to that in control oocytes” and the “sugar dependent current equivalent to univalent positive charge” value came out at 81±7 pmol per 5 minutes. Also, in assay [4] (acidic pH, n=6), the “ratio positive charge / sugar uptake” value is listed as 4.7±0.2. Moreover, the “ratio positive charge / sugar uptake” value in assay [4] (neutral pH, n=12) came to 2.1±0.1. Further, in [5] (Na+ at neutral pH, n=4), the “ratio positive ion uptake / sugar uptake” value is 2.1±0.04. For the same compound, the “ratio positive ion uptake / sugar uptake” value in assay [5] (acidic pH in H+, n=7) is listed as 2±0.1.

Consider `OC[C@H]1NC[C@H](O)[C@@H](O)[C@@H]1O` [Deoxynojirimycin], for which, in assay [1] (range printed with mixed units (nanomolar to micromolar), read-out: affinities to activate SGLT2), the EC50 lay within 0.0005 to 0.002 mM. Further, the “effects on control cells” value in assay [6] was “no effects”. Besides, in [7], the “effects on cells expressing SGLT1” value is “no effects”.

For the compound `CCN1C[C@H](O)[C@@H](O)[C@H](O)[C@H]1CO` [N-(n-ethyl)deoxynojirimycin], the “effects on control cells” value in assay [6] is listed as “no effects”. Besides, the “effects on cells expressing SGLT1” value in assay [7] is recorded as “no effects”.

For `OC[C@@H](O)[C@@H](O)[C@H](O)[C@H](O)CO` [mannitol], the “effect on the membrane potential” value in assay [1] is listed as “no effect”.

Consider `O=C(CCc1ccc(O)cc1)c1c(O)cc(O)cc1O[C@@H]1O[C@H](CO)[C@@H](O)[C@H](O)[C@H]1O` [phlorizin], for which, in assay [1], the “block of the responses to the amino sugars” value is listed as “blocked” and the “inhibition of glucose-induced membrane depolarization” value is reported as “blocked”. Further, the “inhibition of glucose-induced membrane depolarization” value in assay [1] (listed as Phlorizin) is given as “inhibited the membrane depolarization”. Also, the “block of the effect of glucose on mechanical activity of guinea pig ileum” value in assay [8] is recorded as “blocked”. For the same compound, in assay [9], the food intake result is reported as “increases food intake”. Besides, the “glucose mediated increase in firing rate” value in [10] is on record as “blocks”.

In the case of `CO[C@H]1O[C@H](CO)[C@@H](O)[C@H](O)[C@H]1O` [αMDG, α-methyl-D-glucopyranoside], the membrane depolarization entry in assay [1] is given as “about 4 mV”. In addition, in [1], the “effect on the membrane potential (qualitative)” value was “reversibly depolarized the membrane potential”. The “maximum current at saturating sugar concentration (Imax)” value in assay [2] (-150 mV, Na+ buffer, n=5) was 122±20 nA. Besides, the EC50 in assay [2] (-150 mV, Na+ buffer, n=5, read-out: apparent sugar affinity (K0.5) of current) was determined as 36 ± 6 mM; in assay [2] (pH 5 in NaCl, four oocytes, read-out: K0.5), 41 ± 7 mM. Moreover, the Imax in assay [2] (pH 5 in Choline Cl, four oocytes) is 2385±651 nA; in assay [2] (pH 5 in NaCl, four oocytes), 1725±99 nA. Besides, the GLP-1 peptide secretion entry in assay [11] is “stimulates GLP-1 peptide secretion”.

Values taken from patent US7238708B2, “Glucose sensor” (The Regents of the University of California, priority 2004, dated 2007).
